We go through one molecule from patent US12023334B2, “Composition including rilpivirine and method for treating tumors or cancer” (APTORUM THERAPEUTICS LIMITED, priority 2019, dated 2024).

The term EC50 denotes the concentration needed to bring the measured effect to its halfway point. Low values mean an effect from little substance, high ones a need for much substance.

For one test, the system named is RKO-AS45-1. Nature of the test: EC50 in cancer cell line, rilpivirine alone. It is filed as cell-based. To be noted: RKOAS451, Colon.
For the next test, the system named is IMR-32 tumor. The test can be described thus: Xenograft mouse model of neuroblastoma, tumor volume. It is filed as in vivo, female BALB/c nude mice. The note with it: rilpivirine 400 mg/kg once daily for 21 consecutive days, oral; p<0.05. How it is done: This study employed female BALB/c nude mice, aged 4-5 weeks, obtained from BioLasco Taiwan (under Charles River Laboratories Licensee). The animals were housed in individually ventilated cages (IVC, 36 Mini Isolator system). The allocation for 4 animals was 27×20×14 in cm. All the animals were maintained in a hygienic environment under controlled temperature (20-24° C.) and humidity (30%-70%) with 12-hour light/dark cycle. Free access to standard lab diet [MFG (Oriental Yeast Co., Ltd., Japan)] and autoclaved tap water were granted. All aspects of this work including housing, experimentation, and animal disposal were performed in general accordance with the “Guide for the Care and Use of Laboratory Animals: Eighth Edition” (National Academies Press, Washington, D.C., 2011) in our AAALAC-accredited laboratory animal facility. In addition, the animal care and use protocol was reviewed and approved by the IACUC at Pharmacology Discovery Services, Taiwan.
The IMR-32 tumor cell line was purchased from American Type Culture Collection (ATCC CCL-127, neuroblastoma) and cultured in Pharmacology Discovery Services, Taiwan. The cells were cultured in MEM medium containing 10% fetal bovine serum (FBS), 1 mM sodium pyruvate and 1 mM NEAA at 37° C. in 5% CO2 incubator. […] The tumor volume, body weight, mortality, and signs of overt toxicity were monitored and recorded twice weekly for 28 days. […]

Take `Cc1cc(/C=C/C#N)cc(C)c1Nc1ccnc(Nc2ccc(C#N)cc2)n1` [rilpivirine]: the response in the test on RKO-AS45-1 was half-maximal at 4.4 µM (EC50). The “tumor growth compared to negative control group (vehicle)” value with IMR-32 tumor is “significantly inhibited”.
